# Data reported in patent EP4599817A1, “IMPACT ON ENAMEL AND DENTINE […] THROUGH MEDIATED IMPACT OF ANTAGONISTS ON TRPV1 AND TRCP5 […] IN ORAL CARE PRODUCTS” (SkyLab AG, priority 2024, dated 2025).
# “And” between values parts separate entries of the source, which are not always exact repeats. Identical values can stand only once.
# Columns and labels:
# [1] = target: TRPV1 (Homo sapiens, UniProt Q8NER1); settings: clinical trial after third molar extraction; trial terminated; cited from earlier work
# Sequence of TRPV1 (Q8NER1 whole entry): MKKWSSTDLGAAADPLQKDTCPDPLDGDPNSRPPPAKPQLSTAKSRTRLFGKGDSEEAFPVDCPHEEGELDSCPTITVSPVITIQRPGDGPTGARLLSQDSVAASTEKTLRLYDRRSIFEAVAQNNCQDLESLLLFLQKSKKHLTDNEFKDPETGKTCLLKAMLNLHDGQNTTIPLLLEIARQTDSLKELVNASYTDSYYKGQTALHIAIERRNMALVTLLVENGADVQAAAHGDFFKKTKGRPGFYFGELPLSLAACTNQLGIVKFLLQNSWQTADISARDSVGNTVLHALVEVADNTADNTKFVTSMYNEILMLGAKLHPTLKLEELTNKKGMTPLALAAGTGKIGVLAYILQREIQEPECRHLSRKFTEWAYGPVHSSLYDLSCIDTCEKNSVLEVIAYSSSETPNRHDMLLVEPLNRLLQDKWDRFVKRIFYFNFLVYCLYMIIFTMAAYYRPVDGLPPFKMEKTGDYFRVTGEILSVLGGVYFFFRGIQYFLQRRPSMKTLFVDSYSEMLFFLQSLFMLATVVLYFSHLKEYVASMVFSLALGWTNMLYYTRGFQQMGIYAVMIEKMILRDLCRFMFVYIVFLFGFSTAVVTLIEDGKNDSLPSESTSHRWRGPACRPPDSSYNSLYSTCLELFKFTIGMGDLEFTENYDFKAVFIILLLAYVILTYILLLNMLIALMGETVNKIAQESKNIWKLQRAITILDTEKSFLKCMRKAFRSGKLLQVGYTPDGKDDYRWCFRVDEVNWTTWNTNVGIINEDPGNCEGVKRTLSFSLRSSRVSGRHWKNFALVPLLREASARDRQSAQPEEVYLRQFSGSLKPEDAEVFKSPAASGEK
# [2] = system: hypersensitive teeth; assay: Randomized controlled study of dentine hypersensitivity: visual analogue scale (VAS) score with hot applicator and ice cube, before and after first mouthwash application; format: in vivo, patients; parameters: key to Before Ice / Before Hot: VAS score, 0 = no pain to 10 = severe pain (10 cm line); settings: for Hot After 1 use Mean / Ice After 1 use Mean / Before Hot Mean / Before Ice Mean / Hot After 1 use / Ice After 1 use: VAS 0-10; for Hot After 1 use Mean / Ice After 1 use Mean / Before Hot Mean / Before Ice Mean: group mean of 6 subjects; for Hot After 1 use Mean / Ice After 1 use Mean: after first application of mouthwash; for Hot After 1 use Mean / Before Hot Mean / Hot After 1 use / Before Hot / Modifications in HS after the product application, Hot After 1 use, %: applicator heated to 90C; for Ice After 1 use Mean / Before Ice Mean / Ice After 1 use / Before Ice / Modifications in HS after the product application, Ice After 1 use, %: ice cube; for Before Hot Mean / Before Ice Mean / Before Hot / Before Ice: baseline before mouthwash; for Hot After 1 use / Ice After 1 use / Before Hot / Before Ice: individual subjects 1-6; for Hot After 1 use / Ice After 1 use: after first application of mouthwash (potassium nitrate 5%, galangin 0,1%, adenosine 0,05%, oleic acid 0,1% or combination); for Before Hot / Before Ice: VAS 0 - no pain, 10 - severe pain; for Modifications in HS after the product application, Hot After 1 use, % / Modifications in HS after the product application, Ice After 1 use, %: decrease of mean VAS versus before, mouthwash, first application
# Description: Table 2. Schedule of enrollment, intervention and assessment of the study
# • Age from 18 to 35 years old • Good overall health; • At least one DHS tooth with sensitivity over or equal to 4 (VAS). Withdrawal criteria • Active caries or defective restorations on the tested tooth; • Considerable loss of dentine, requiring remedial treatment or paradental surgery; • Presence of veneers; • Any professional desensitizing treatment during previous 6 months; • Use of desensitizing toothpaste during previous 3 months. • Use of anti-inflammatory medicine or painkillers during enrollment; • Currently pregnant of breast-feeding.
# The subjects were randomized into 6 treatment groups, two control groups of which were negative and positive controls (Fig. 3).
# For random distribution of subjects, randomization was made as a draw with the website www.randomizer.org. An average value of initial points according to DHS degree was determined for each subject, and the subjects were randomized into treatment groups providing the equivalent initial DHS points for various treatment modes. All the hypersensitive teeth in each subject were estimated with the use of DHS; an average value was considered for the baseline. All the hypersensitive teeth were subjected and re-estimated. Next, and average value was calculated for the final estimation of sensitivity.
# These products were used by them till the end of the study. An oral care set included soft toothbrush and toothpaste for general oral care.
# The treatment groups received mouthwashes with the following systems; Table 3. Basic formulation of mouthwash to include the system: […]
# The primary result expected in the study was the decrease of dental hypersensitivity after the first application of the product. The result of the system application was calculated with a visual analogue scale, which registers sensitivity with a 10 cm line. The line extremums are the pain limits, which the subject can feel from external irritant (0 - no pain; 10 - severe pain). First, dental sensitivity was registered with an ice cube and an applicator heated to 90C. After the first application, sensitivity to external irritant was registered with an ice cube and an applicator heated to 90C.
# The tested sample size was 36 subjects. The data was collected and then filtered out from errors and processed with the standard functionality of MS Excel. The charts were made with Microsoft Excel software. Table 5. Results of hypersensitivity assessment study
# [3] = oral administration; due to intensive metabolism; cited from earlier work
# [4] = target: T1, CYP1A1 (Homo sapiens, UniProt P04798); settings: with various proteins, such as CYP1A1; transformation into kaempferol; cited from earlier work
# T1 sequence (P04798 1-512): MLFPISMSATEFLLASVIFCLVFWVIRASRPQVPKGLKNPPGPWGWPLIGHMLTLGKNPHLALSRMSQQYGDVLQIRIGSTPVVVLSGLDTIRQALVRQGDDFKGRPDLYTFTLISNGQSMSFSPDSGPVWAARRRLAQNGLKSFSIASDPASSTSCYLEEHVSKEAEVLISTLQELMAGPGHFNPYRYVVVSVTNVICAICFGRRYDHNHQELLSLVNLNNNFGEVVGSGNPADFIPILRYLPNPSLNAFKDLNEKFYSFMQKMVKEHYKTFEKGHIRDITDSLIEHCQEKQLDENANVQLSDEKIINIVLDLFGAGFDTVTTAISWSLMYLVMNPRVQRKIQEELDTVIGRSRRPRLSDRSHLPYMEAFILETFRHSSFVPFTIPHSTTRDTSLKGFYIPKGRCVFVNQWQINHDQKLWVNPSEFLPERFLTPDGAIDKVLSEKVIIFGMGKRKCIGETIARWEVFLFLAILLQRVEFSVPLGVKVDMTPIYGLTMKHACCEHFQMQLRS
# [5] = pure galangin; cited from earlier work
# [6] = system: TRPC5; settings: animal model, cited from earlier work
# [7] = target: T2, TRPC5 receptors (Homo sapiens, UniProt Q9UL62); settings: compared with galangin; cited from earlier work
# T2 sequence (Q9UL62 1-973): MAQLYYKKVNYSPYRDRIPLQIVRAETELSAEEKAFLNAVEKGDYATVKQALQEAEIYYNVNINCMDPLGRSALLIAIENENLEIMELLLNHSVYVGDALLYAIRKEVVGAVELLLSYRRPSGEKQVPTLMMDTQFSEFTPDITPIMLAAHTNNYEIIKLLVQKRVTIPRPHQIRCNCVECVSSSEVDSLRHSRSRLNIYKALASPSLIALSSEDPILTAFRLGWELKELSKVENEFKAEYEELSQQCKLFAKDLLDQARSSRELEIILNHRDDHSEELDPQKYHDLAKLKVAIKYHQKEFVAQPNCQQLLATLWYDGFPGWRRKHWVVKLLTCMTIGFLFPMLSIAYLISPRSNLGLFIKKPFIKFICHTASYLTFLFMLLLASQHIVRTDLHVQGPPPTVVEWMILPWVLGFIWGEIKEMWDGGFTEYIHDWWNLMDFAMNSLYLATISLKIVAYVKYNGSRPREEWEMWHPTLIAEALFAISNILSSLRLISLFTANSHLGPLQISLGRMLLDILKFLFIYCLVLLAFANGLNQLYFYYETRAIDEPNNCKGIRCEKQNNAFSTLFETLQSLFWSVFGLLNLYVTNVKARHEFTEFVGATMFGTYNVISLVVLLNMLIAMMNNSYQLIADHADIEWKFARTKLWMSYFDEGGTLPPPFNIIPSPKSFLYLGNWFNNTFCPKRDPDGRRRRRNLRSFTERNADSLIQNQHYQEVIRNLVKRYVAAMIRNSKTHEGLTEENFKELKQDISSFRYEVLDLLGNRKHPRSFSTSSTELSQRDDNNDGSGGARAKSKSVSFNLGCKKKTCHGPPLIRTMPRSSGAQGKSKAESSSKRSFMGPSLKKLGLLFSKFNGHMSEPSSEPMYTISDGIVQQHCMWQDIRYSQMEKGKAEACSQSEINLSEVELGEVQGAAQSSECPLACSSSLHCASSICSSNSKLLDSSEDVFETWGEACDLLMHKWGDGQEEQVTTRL
SMILES,Hot After 1 use Mean [2],Ice After 1 use Mean [2],Before Hot Mean [2],Before Ice Mean [2],"Modifications in HS after the product application, Hot After 1 use, % [2] [%]","Modifications in HS after the product application, Ice After 1 use, % [2]",also measured
CC(=O)Nc1nc2c(Oc3cc(-c4ccc(C(F)(F)F)cc4)ncn3)cccc2s1 [AMG 517],–,–,–,–,–,–,body temperature [1]: increased body temperature
"Nc1ncnc2c1ncn2[C@@H]1O[C@H](CO)[C@@H](O)[C@H]1O [Adenosine, adenosine]",4,"6,8","7,3",7,45.2,2.8%,Hot After 1 use ([2]; listed as 4): 5 and 6 and 4 (2×) and 2 and 3; Ice After 1 use ([2]; listed as 4): 8 and 9 and 6 (2×) and 5 and 7; Before Hot ([2]; listed as 4): 8 and 9 (2×) and 7 and 6 and 5; Before Ice ([2]; listed as 4): 8 (2×) and 7 (2×) and 6 (2×)
"O=c1c(O)c(-c2ccccc2)oc2cc(O)cc(O)c12 [Galangin, galangin]","4,6","2,5","5,2","5,8",11.5,"56,9%",Hot After 1 use ([2]; listed as 3): 4 and 6 and 3 and 5 (3×); Ice After 1 use ([2]; listed as 3): 3 (2×) and 2 (2×) and 4 and 1; Before Hot ([2]; listed as 3): 3 and 6 (2×) and 4 and 7 and 5; Before Ice ([2]; listed as 3): 6 (3×) and 5 (2×) and 7; bioavailability [3]: extremely low bioavailability; metabolic oxidation [4]: prone to rapid metabolic oxidation; solubility in water [5]: practically insoluble in water
Cc1cc(N2CCCCC2)nc2ccccc12 [ML204],–,–,–,–,–,–,response to cold and pain ([6]; TRPC5 blockers): effectively eliminated any response to cold and prevented pain
"CCCCCCCC/C=C\CCCCCCCC(=O)O [Oleic acid, oleic acid]","4,3","5,2","6,8","7,2",36.8,27.8%,Hot After 1 use ([2]; listed as 5): 3 and 5 and 4 (3×) and 6; Ice After 1 use ([2]; listed as 5): 8 and 4 (2×) and 6 (2×) and 3; Before Hot ([2]; listed as 5): 5 and 9 and 6 (2×) and 8 and 7; Before Ice ([2]; listed as 5): 9 and 8 (2×) and 5 and 7 and 6
O=[N+]([O-])[O-].[K+] [Potassium nitrate],6,"5,7","6,7","7,6",10.4,25%,Hot After 1 use ([2]; listed as 1): 5 (2×) and 4 and 7 (2×) and 8; Ice After 1 use ([2]; listed as 1): 5 (2×) and 4 and 7 (2×) and 6; Before Hot ([2]; listed as 1): 5 (2×) and 6 and 8 (3×); Before Ice ([2]; listed as 1): 7 and 8 (3×) and 6 and 9
O=c1c(O)c(-c2ccc(O)cc2)oc2cc(O)cc(O)c12 [kaempferol],–,–,–,–,–,–,"impact on TRPC5 receptors [7]: either does not affect TRPC5 receptors, or shows a significantly milder impact than that of galangin"
Nc1nc2ccc(OC(F)(F)F)cc2s1 [ruizole],–,–,–,–,–,–,jaw sensitivity ([6]; agonist of TRPC5 channel): increased jaw sensitivity
